Source: publication PMC10054634, “Chemical Constituents of Thesium chinense Turcz and Their In Vitro Antioxidant, Anti-Inflammatory and Cytotoxic Activities” (Molecules, 2023)
Entries after “also recorded” stand apart in the source; their conditions may differ.

Assays:
NCI-H292 = experiment: Cytotoxic assay (CCK-8), NCI-H292; format: cell-based, human; settings: Homo sapiens, NCI-H292, 48 h, mean ± SD (n = 3)
Experimental: (§1) Four human cancer cell lines, A549, NCI-H292, SiHa and MKN45, were purchased from the Cell Bank of the Chinese Academy of Sciences (Shanghai, China). […] Cisplatin (Abmole Bioscience, Shanghai, China) was used as positive control.
(§2) A total of 180 μL of cancer cells (5 × 10^3) were plated in each well of 96-well plates and cultured for 24 h, then the supernatant of the culture was discarded and 180 μL complete medium with different concentrations of test samples were added into triplicate wells of each cell line, respectively. Thereafter, A549, NCI-H292, SiHa and MKN45 were incubated for 48 h, respectively. The cell viability was evaluated by Cell Counting Kit-8 (CCK-8, Best Bio., Beijing, China), respectively. The experiments were performed in triplicate, and the data were expressed as the means ± SD of three independent experiments.

MKN45 = experiment: Cytotoxic assay (CCK-8), MKN45; format: cell-based, human; settings: Homo sapiens, MKN-45, MKN45, 48 h, mean ± SD (n = 3)
Experimental: as §1, §2

A549 = experiment: Cytotoxic assay (CCK-8), A549; format: cell-based, human; settings: Homo sapiens, A549, 48 h, mean ± SD (n = 3)
Experimental: as §1, §2

[1] = Cytotoxicity in RAW 264.7 cells (CCK-8); settings: mouse
Experimental: The cell viability was determined by the CCK-8 assay method. The cytotoxicity was calculated from the plotted results using untreated cells at 100%.

SiHa = experiment: Cytotoxic assay (CCK-8), SiHa; format: cell-based, human; settings: Homo sapiens, 48 h, mean ± SD (n = 3)
Experimental: as §1, §2

[2] = DPPH radical scavenging assay; settings: for antioxidant activity on DPPH radical scavenging (in words): compared with positive control ascorbic acid; for SC50: concentration required for 50% reduction of DPPH radicals, 37 °C, 30 min, 517 nm, nc = SC50 cannot be calculated due to weak or no related activities
Experimental: The 2, 2-diphenyl-1-picrylhydrazyl (Aldrich Chem. Co. Ltd, Shanghai, China) radical scavenging activity assay was performed according to the previously published method with some modification. Test samples were dissolved in MeOH to six different concentrations ranging from 3.125 to 100 μM. Then, 100 μL of 100 μM DPPH in MeOH were mixed with 100 μL of samples at different concentrations in the wells of 96-well plates. The reaction mixtures were incubated in the dark at 37 °C for 30 min and then measured at 517 nm. Ascorbic acid was used as the positive control. The scavenging activity (SC) was estimated as follows: % SC = [1 − (Asample − Ablank)/Acontrol] ×100. Asample was the equivalent mixture of test sample and DPPH solution. Ablank was the equivalent mixture of test sample and MeOH solution. Acontrol was the equivalent mixture of DPPH and MeOH solution. The SC50 values were used to evaluate the antioxidant activities of isolated compounds. The experiments were performed in triplicate, and the data were expressed as the means ± SD of three independent experiments.

[3] = test system: NO production in LPS-activated RAW 264.7 cells; experiment: Inhibition of NO production in LPS-activated RAW 264.7 cells (Griess reaction); format: cell-based; settings: Mus musculus, RAW264.7; RAW 264.7, 1 μg/mL LPS, 24 h; mean ± SD (n = 3); read-out: IC50 (NO inhibitory activity)
Experimental: The macrophage RAW 264.7 cells were obtained from the Cell Bank of the Chinese Academy of Sciences (Shanghai, China). A total of 180 μL of RAW 264.7 cells (1 × 10^4) were plated respectively in each well of 96-well plate and cultured for 24 h, then the supernatant of the culture was discarded and 180 μL complete medium with 1 μg/mL LPS and different concentrations of test samples were added into triplicate wells for 24 h. The inhibition effects on LPS-stimulated NO production was evaluated by the Griess reaction assay. The experiments were performed in triplicate, and the data were expressed as the means ± SD of three independent experiments.

[4] = test system: LPS-induced acute lung injury; parameters: method as in PMID 34417573, PMID 34038447; settings: mice; cited from earlier work

Compound	IC50 (NCI-H292)	IC50 (MKN45)	IC50 (A549)	IC50 [1]	IC50 (SiHa)	antioxidant activity on DPPH radical scavenging (in words) [2]	SC50 [2]	IC50 [3]	anti-inflammatory effects against LPS-induced acute lung injury [4]	IC50 (RAW 264.7 cells)
COc1cc(C(O)C(CO)Oc2ccc(C(O)C(O)CO)cc2OC)ccc1O (stereo not drawn) [Compound 18, 1-(4-hydroxy-3-methoxy)-phenyl-2-[4-(1,2,3-trihydroxypropyl)-2-methoxy]-phenoxy-1,3-propan-diol]	> 200 µM	> 200 µM	> 200 µM	> 200 µM	> 200 µM	weak antioxidant activities; also recorded: moderate activity	127.9 ± 15.4 µM	> 200 µM	–	–
COc1cc([C@@H]2OC[C@@H](Cc3ccc(O[C@@H]4O[C@H](CO)[C@@H](O)[C@H](O)[C@H]4O)c(OC)c3)[C@H]2CO)ccc1O [Compound 19, lariciresinol-4-O-β-D-glucoside]	> 200 µM	> 200 µM	> 200 µM	> 200 µM	> 200 µM	significant scavenging activity	48.8 ± 2.9 µM	> 200 µM	–	–
CCOC(=O)/C=C/c1ccc(O)c(OC)c1 [Compound 21, 3-O-ethyl ferulate]	> 200 µM	> 200 µM	> 200 µM	> 200 µM	> 200 µM	–	50.8 ± 1.4 µM	28.6 ± 3 µM	obvious anti-inflammatory effects	–
COc1cc([C@@H](OC)[C@H](O)CO)ccc1O [Compound 26, alatusol D]	> 200 µM	> 200 µM	> 200 µM	> 200 µM	> 200 µM	weak antioxidant activities	284.0 ± 16.5 µM	> 200 µM	–	–
scopolin [Compound 27]	–	–	–	–	–	–	–	–	–	> 200 µM
